Experimental data: ChEMBL document CHEMBL3885881, “DrugMatrix”

Species: Rattus norvegicus
Assay: DrugMatrix - Regimen: Daily Repeat
Type: toxicity, organism-based, Sprague-Dawley
Set-up: regimen Daily Repeat, gender Male, age 6-8 weeks
Conditions: in vivo, po, route oral GAVAGE, vehicle .5 % CMC; for ABSOLUTE BASOPHIL / ABSOLUTE EOSINOPHIL / ABSOLUTE LYMPHOCYTE / ABSOLUTE MONOCYTE / ABSOLUTE SEGMENTED NEUTROPHIL / BASOPHIL / EOSINOPHIL / ERYTHROCYTE COUNT / HEMATOCRIT / HEMOGLOBIN / LEUKOCYTE COUNT / LYMPHOCYTE / MEAN CORPUSCULAR HEMOGLOBIN / MEAN CORPUSCULAR HEMOGLOBIN CONCENTRATION / MEAN CORPUSCULAR VOLUME / MONOCYTE / NEUTROPHIL / NUCLEATED RED BLOOD CELLS / PLATELET COUNT: tissue Blood; for ALANINE AMINOTRANSFERASE / ALBUMIN / ALKALINE PHOSPHATASE / ASPARTATE AMINOTRANSFERASE / BLOOD UREA NITROGEN / CARBON DIOXIDE / CHLORIDE / CHOLESTEROL / CREATINE PHOSPHOKINASE / CREATININE / GLUCOSE / LACTATE DEHYDROGENASE / LIPASE / PHOSPHORUS / POTASSIUM / SODIUM / TOTAL BILIRUBIN / TOTAL PROTEIN / URIC ACID: tissue Plasma
[1] = 10 mg/kg, 120 h, dose level Low, time 5 day
[2] = 63 mg/kg, 72 h, dose level High, time 3 day
[3] = 63 mg/kg, 120 h, dose level High, time 5 day

Structure (SMILES): COc1c(C)c2c(c(O)c1C/C=C(\C)CCC(=O)OCCN1CCOCC1)C(=O)OC2 [MYCOPHENOLATE MOFETIL]
- ABSOLUTE BASOPHIL [1]: 0 CELLS/uL
- ABSOLUTE EOSINOPHIL [1]: 90 CELLS/uL
- ABSOLUTE LYMPHOCYTE [1]: 13218.67 CELLS/uL
- ABSOLUTE MONOCYTE [1]: 116.67 CELLS/uL
- ABSOLUTE SEGMENTED NEUTROPHIL [1]: 1408 CELLS/uL
- BASOPHIL [1]: 0%
- EOSINOPHIL [1]: 0.67%
- ERYTHROCYTE COUNT [1]: 5.48 x10E6/uL
- HEMATOCRIT [1]: 34.27%
- HEMOGLOBIN [1]: 13.7 G/DL
- LEUKOCYTE COUNT [1]: 14.83 x10E3/uL
- LYMPHOCYTE [1]: 89.33%
- MEAN CORPUSCULAR HEMOGLOBIN [1]: 25 pg
- MEAN CORPUSCULAR HEMOGLOBIN CONCENTRATION [1]: 40.03 G/DL
- MEAN CORPUSCULAR VOLUME [1]: 62.53 fL
- MONOCYTE [1]: 0.67%
- NEUTROPHIL [1]: 9.33%
- NUCLEATED RED BLOOD CELLS [1]: 0 /100WBC
- PLATELET COUNT [1]: 1214 x10E3/uL
- ALANINE AMINOTRANSFERASE [1]: 55.67 u/L
- ALBUMIN [1]: 4.17 G/DL
- ALKALINE PHOSPHATASE [1]: 364.33 u/L
- ASPARTATE AMINOTRANSFERASE [1]: 99.67 u/L
- BLOOD UREA NITROGEN [1]: 13.67 mg/dL
- CARBON DIOXIDE [1]: 31.33 mmol/L
- CHLORIDE [1]: 102.67 MEQ/L
- CHOLESTEROL [1]: 61.67 mg/dL
- CREATINE PHOSPHOKINASE [1]: 341.67 u/L
- CREATININE [1]: 0.2 mg/dL
- GLUCOSE [1]: 141 mg/dL
- LACTATE DEHYDROGENASE [1]: 409.33 u/L
- LIPASE [1]: 9.67 u/L
- PHOSPHORUS [1]: 11.87 mg/dL
- POTASSIUM [1]: 6.19 MEQ/L
- SODIUM [1]: 144.83 MEQ/L
- TOTAL BILIRUBIN [1]: 0.1 mg/dL
- TOTAL PROTEIN [1]: 5.8 G/DL
- URIC ACID [1]: 1.37 mg/dL
- ABSOLUTE BASOPHIL [2]: 0 CELLS/uL
- ABSOLUTE EOSINOPHIL [2]: 0 CELLS/uL
- ABSOLUTE LYMPHOCYTE [2]: 8638 CELLS/uL
- ABSOLUTE MONOCYTE [2]: 62 CELLS/uL
- ABSOLUTE SEGMENTED NEUTROPHIL [2]: 300 CELLS/uL
- BASOPHIL [2]: 0%
- EOSINOPHIL [2]: 0%
- ERYTHROCYTE COUNT [2]: 4.81 x10E6/uL
- HEMATOCRIT [2]: 32.3%
- HEMOGLOBIN [2]: 12.6 G/DL
- LEUKOCYTE COUNT [2]: 9 x10E3/uL
- LYMPHOCYTE [2]: 96%
- MEAN CORPUSCULAR HEMOGLOBIN [2]: 26.2 pg
- MEAN CORPUSCULAR HEMOGLOBIN CONCENTRATION [2]: 39 G/DL
- MEAN CORPUSCULAR VOLUME [2]: 67.17 fL
- MONOCYTE [2]: 0.67%
- NEUTROPHIL [2]: 3.33%
- NUCLEATED RED BLOOD CELLS [2]: 0.33 /100WBC
- PLATELET COUNT [2]: 1141.33 x10E3/uL
- ALANINE AMINOTRANSFERASE [2]: 32.67 u/L
- ALBUMIN [2]: 4.13 G/DL
- ALKALINE PHOSPHATASE [2]: 373.33 u/L
- ASPARTATE AMINOTRANSFERASE [2]: 70.33 u/L
- BLOOD UREA NITROGEN [2]: 14.33 mg/dL
- CARBON DIOXIDE [2]: 28.67 mmol/L
- CHLORIDE [2]: 102.33 MEQ/L
- CHOLESTEROL [2]: 78.67 mg/dL
- CREATINE PHOSPHOKINASE [2]: 199.67 u/L
- CREATININE [2]: 0.16 mg/dL
- GLUCOSE [2]: 161.67 mg/dL
- LACTATE DEHYDROGENASE [2]: 310.33 u/L
- LIPASE [2]: 9.67 u/L
- PHOSPHORUS [2]: 11.63 mg/dL
- POTASSIUM [2]: 6.25 MEQ/L
- SODIUM [2]: 143.47 MEQ/L
- TOTAL BILIRUBIN [2]: 0.13 mg/dL
- TOTAL PROTEIN [2]: 5.6 G/DL
- URIC ACID [2]: 1.1 mg/dL
- ABSOLUTE BASOPHIL [3]: 0 CELLS/uL
- ABSOLUTE EOSINOPHIL [3]: 45.67 CELLS/uL
- ABSOLUTE LYMPHOCYTE [3]: 11569 CELLS/uL
- ABSOLUTE MONOCYTE [3]: 81.67 CELLS/uL
- ABSOLUTE SEGMENTED NEUTROPHIL [3]: 1037 CELLS/uL
- BASOPHIL [3]: 0%
- EOSINOPHIL [3]: 0.33%
- ERYTHROCYTE COUNT [3]: 4.9 x10E6/uL
- HEMATOCRIT [3]: 29.73%
- HEMOGLOBIN [3]: 12.17 G/DL
- LEUKOCYTE COUNT [3]: 12.73 x10E3/uL
- LYMPHOCYTE [3]: 91%
- MEAN CORPUSCULAR HEMOGLOBIN [3]: 24.83 pg
- MEAN CORPUSCULAR HEMOGLOBIN CONCENTRATION [3]: 40.93 G/DL
- MEAN CORPUSCULAR VOLUME [3]: 60.7 fL
- MONOCYTE [3]: 0.67%
- NEUTROPHIL [3]: 8%
- NUCLEATED RED BLOOD CELLS [3]: 0 /100WBC
- PLATELET COUNT [3]: 1576 x10E3/uL
- ALANINE AMINOTRANSFERASE [3]: 40.33 u/L
- ALBUMIN [3]: 4.33 G/DL
- ALKALINE PHOSPHATASE [3]: 290 u/L
- ASPARTATE AMINOTRANSFERASE [3]: 92.67 u/L
- BLOOD UREA NITROGEN [3]: 17.33 mg/dL
- CARBON DIOXIDE [3]: 27.33 mmol/L
- CHLORIDE [3]: 101 MEQ/L
- CHOLESTEROL [3]: 76.67 mg/dL
- CREATINE PHOSPHOKINASE [3]: 208.67 u/L
- CREATININE [3]: 0.15 mg/dL
- GLUCOSE [3]: 189.33 mg/dL
- LACTATE DEHYDROGENASE [3]: 215.33 u/L
- LIPASE [3]: 7 u/L
- PHOSPHORUS [3]: 12.23 mg/dL
- POTASSIUM [3]: 5.8 MEQ/L
- SODIUM [3]: 145 MEQ/L
- TOTAL BILIRUBIN [3]: 0.2 mg/dL
- TOTAL PROTEIN [3]: 6.07 G/DL
- URIC ACID [3]: 1.83 mg/dL
